Reference: PMC3920557 (The Journal of Experimental Medicine, 2014)
Ends that are not written are not given here.

Columns and labels:
OB1 B cells = experiment: ERK1/2 phosphorylation in OB1 B cells; type: cell-based, mouse; conditions: 0.5 µM, 1 and 3 min; AGA 17-mer 3 min (Fig. 2 B)
[1] = system: OB1-MHC class II GFP B cells; experiment: Peptide internalization by confocal microscopy, OB1 MHC II GFP B cells; type: cell-based, mouse; conditions: Alexa Fluor 647-conjugated versions, 1 µM, 10 min, washed, confocal microscopy (Fig. 1 F)
[2] = Solubility and aggregation of peptide; type: physicochemical

Sequence	ERK1/2 phosphorylation, nested peptides (OB1 B cells)	antigen internalization in OB1-MHC class II GFP B cells [1]	water solubility [2]
FDKLPGAGASIEAQGGK [AGA 17-mer]	did not stimulate	did not detect any	
FDKLPGFGDSIEAQGGK [FGD 17-mer]			water-soluble
